Data on six molecules can be found in patent US8895572B2, “Fused heterocyclic indane carboxamide CGRP receptor antagonists” (Merck Sharp & Dohme Corp., priority 2010, dated 2014).

SMILES strings stand for the structures.

T1 sequence (Q16602 23-461): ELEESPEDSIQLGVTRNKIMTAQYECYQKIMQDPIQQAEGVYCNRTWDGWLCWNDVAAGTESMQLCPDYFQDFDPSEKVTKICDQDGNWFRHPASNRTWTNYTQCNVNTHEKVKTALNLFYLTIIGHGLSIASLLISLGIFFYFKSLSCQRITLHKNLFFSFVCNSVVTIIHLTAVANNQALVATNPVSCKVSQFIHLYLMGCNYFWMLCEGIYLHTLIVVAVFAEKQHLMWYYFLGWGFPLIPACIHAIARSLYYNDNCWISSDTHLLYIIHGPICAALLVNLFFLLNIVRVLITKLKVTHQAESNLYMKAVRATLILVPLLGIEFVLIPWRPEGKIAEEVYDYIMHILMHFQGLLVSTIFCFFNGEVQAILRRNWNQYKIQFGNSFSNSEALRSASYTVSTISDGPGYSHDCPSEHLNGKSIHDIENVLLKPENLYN
T1 sequence (O60894 27-148): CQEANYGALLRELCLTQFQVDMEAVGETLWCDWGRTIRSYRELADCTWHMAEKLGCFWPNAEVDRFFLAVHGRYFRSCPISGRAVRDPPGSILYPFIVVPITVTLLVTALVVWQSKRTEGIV

This assay concerns the target T1, recombinant human CL receptor/RAMP1 (Homo sapiens, UniProt O60894+Q16602).
T1 construct: expressed in transfected cells; membranes used
The assay can be described thus: Recombinant receptor binding assay (125I-hCGRP). Particulars: membranes of HEK 293 cells expressing human CL receptor/RAMP1, 10 pM 125I-hCGRP, 3 h at room temperature. How it is done: Human CL receptor (Genbank accession number L76380) was subcloned into the expression vector pIREShyg2 (BD Biosciences Clontech) as a 5′NheI and 3′ PmeI fragment. Human RAMP1 (Genbank accession number AJ001014) was subcloned into the expression vector pIRESpuro2 (BD Biosciences Clontech) as a 5′NheI and 3′NotI fragment. HEK 293 cells (human embryonic kidney cells; ATCC #CRL-1573) were cultured in DMEM with 4.5 g/L glucose, 1 mM sodium pyruvate and 2 mM glutamine supplemented with 10% fetal bovine serum (FBS), 100 units/mL penicillin and 100 μg/mL streptomycin, and maintained at 37° C. and 95% humidity. Cells were subcultured by treatment with 0.25% trypsin with 0.1% EDTA in HBSS. Stable cell line generation was accomplished by co-transfecting 10 μg of DNA with 30 μg Lipofectamine 2000 (Invitrogen) in 75 cm^2 flasks. CL receptor and RAMP1 expression constructs were co-transfected in equal amounts. Twenty-four hours after transfection the cells were diluted and selective medium (growth medium+300 μg/mL hygromycin and 1 μg/mL puromycin) was added the following day. A clonal cell line was generated by single cell deposition utilizing a FACS Vantage SE (Becton Dickinson). Growth medium was adjusted to 150 μg/mL hygromycin and 0.5 μg/mL puromycin for cell propagation.
Cells expressing recombinant human CL receptor/RAMP1 were washed with PBS and harvested in harvest buffer containing 50 mM HEPES, 1 mM EDTA and Complete™ protease inhibitors (Roche). The cell suspension was disrupted with a laboratory homogenizer and centrifuged at 48,000 g to isolate membranes. The pellets were resuspended in harvest buffer plus 250 mM sucrose and stored at […]. For binding assays, 20 μg of membranes were incubated in 1 mL binding buffer (10 mM HEPES, pH 7.4, 5 mM MgCl2, and 0.2% BSA) for 3 h at room temperature containing 10 pM ^125I-hCGRP (GE Healthcare) and antagonist. The assay was terminated by filtration through 96-well GFB glass fiber filter plates (PerkinElmer) that had been blocked with 0.05% polyethyleneimine. The filters were washed 3 times with ice-cold assay buffer (10 mM HEPES, pH 7.4, and 5 mM MgCl2). Scintillation fluid was added and the plates were counted on a Topcount (Packard). Non-specific binding was determined and the data analysis was carried out with the apparent dissociation constant (Ki) determined by using a non-linear least squares fitting the bound CPM data to the equation below:
[formula] Where Y is observed CPM bound, Ymax is total bound counts, Ymin is non specific bound counts, (Ymax−Ymin) is specific bound counts, % Imax is the maximum percent inhibition, % 1 min is the minimum percent inhibition, radiolabel is the probe, and the Kd is the apparent dissociation constant for the radioligand for the receptor as determined by hot saturation experiments.
Usually Ki stands for a measure of affinity in units of concentration, obtained from inhibition or displacement. Take `C[C@@H]1[C@H](c2ccccc2)C[C@H](NC(=O)c2ccc3c(c2)C[C@@]2(C3)C(=O)Nc3ncccc32)c2ncc(C(C)(C)O)n21` [Example 1.20, (2R)—N-[(5R,6S,8S)-3-(2-Hydroxypropan-2-yl)-5-methyl-6-phenyl-5,6,7,8-tetrahydroimidazo[1,2-a]pyridin-8-yl]-2′-oxo-1,1′,2′,3-tetrahydrospiro[indene-2,3′-pyrrolo[2,3-b]pyridine]-5-carboxamide]: the inhibition constant Ki is 0.27 nM.
The figure for `O=C(N[C@H]1C[C@@H](c2cccc(F)c2F)Cn2c(CC(F)(F)F)nnc21)c1ccc2c(c1)C[C@@]1(C2)C(=O)Nc2ncccc21` [Example 1.14, (2R)—N-[(6S,8S)-6-(2,3-Difluorophenyl)-3-(2,2,2-trifluoroethyl)-5,6,7,8-tetrahydr[1,2,4]triazolo[4,3-a]pyridin-8-yl]-2′-oxo-1,1′,2′,3-tetrahydrospiro[indene-2,3′-pyrrolo[2,3-b]pyridine]-5-carboxamide] is 0.07 nM; for `C[C@@H]1[C@H](c2ccccc2)C[C@H](NC(=O)c2ccc3c(c2)C[C@@]2(C3)C(=O)Nc3ncccc32)c2nnc(C3(C(F)(F)F)CC3)n21` [Example 1.19, (2R)—N-{(5R,6S,8S)-5-Methyl-6-phenyl-3-[1-(trifluoromethyl)cyclopropyl]-5,6,7,8-tetrahydro[1,2,4]triazolo[4,3-a]pyridin-8-yl}-2′-oxo-1,1′,2′,3-tetrahydrospiro[indene-2,3′-pyrrolo[2,3-b]pyridine]-5-carboxamide] it is 0.39 nM; for `COC(C)(C)c1cnc2n1C[C@H](c1cccc(F)c1F)C[C@@H]2NC(=O)c1ccc2c(c1)C[C@@]1(C2)C(=O)Nc2ncccc21` [Example 1.8, (2R)—N-[(6S,8S)-6-(2,3-Difluorophenyl)-3-(2-methoxypropan-2-yl)-5,6,7,8-tetrahydroimidazo[1,2-a]pyridin-8-yl]-2′-oxo-1,1′,2′,3-tetrahydrospiro[indene-2,3′-pyrrolo[2,3-b]pyridine]-5-carboxamide] it is 0.03 nM.
In the case of `C[C@@H]1[C@H](c2ccccc2)C[C@H](NC(=O)c2ccc3c(c2)C[C@@]2(C3)C(=O)Nc3ncncc32)c2ncc(C(C)(C)O)n21` [Example 2.1, (2R)—N-[(5R,6S,8S)-3-(2-Hydroxypropan-2-yl)-5-methyl-6-phenyl-5,6,7,8-tetrahydroimidazo[1,2-a]pyridin-8-yl]-6′-oxo-1,3′,6′,7′-tetrahydrospiro[indene-2,5′-pyrrolo[2,3-d]pyrimidine]-5-carboxamide], the Ki was 0.19 nM.
The same measure for `O=C(N[C@H]1C[C@@H](c2cccc(F)c2F)Cn2c(CC(F)(F)F)cnc21)c1ccc2c(c1)C[C@@]1(C2)C(=O)Nc2ncccc21` [Example 1.2, (2R)—N-[(6S,8S)-6-(2,3-Difluorophenyl)-3-(2,2,2-trifluoroethyl)-5,6,7,8-tetrahydroimidazo[1,2-a]pyridin-8-yl]-2′-oxo-1,1′,2′,3-tetrahydrospiro[indene-2,3′-pyrrolo[2,3-b]pyridine]-5-carboxamide]: 0.07 nM.
